PubChem BioAssay AID248 (DTP/NCI, 2004)
“And” between values parts separate entries of the source, which are not always exact repeats. Identical values can stand only once. Inconclusive results and toxic doses are left out. Bridge positions count the residues as written; N and C are the ends. Peptide text beside a SMILES is read from it. I, II: the chains in the order shown.

System: L1210 leukemia ip in BDF1 mice, survival T/C
Assay: NCI In Vivo Anticancer Drug Screen. Data for tumor model L1210 Leukemia (intraperitoneal) in B6D2F1 (BDF1) mice
Conditions: endpoint: mean survival time, higher = longer survival
Method in brief: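 Each compound was tested against a transplantable tumor grown in mice. The endpoint was survival, with treated animals benchmarked against vehicle controls as a simple ratio.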

[1] = dose: 100.0 mg/kg/injection, schedule: Q01DX009 (ip), vehicle: saline with Tween-80
[2] = dose: 200.0 mg/kg/injection, schedule: Q01DX009 (ip), vehicle: saline with Tween-80
[3] = dose: 400.0 mg/kg/injection, schedule: Q01DX009 (ip), vehicle: saline with Tween-80
[4] = dose: 50.0 mg/kg/injection, schedule: Q04DX003 (ip), vehicle: Klucel (hydroxypropylcellulose) (HPC)
[5] = dose: 100.0 mg/kg/injection, schedule: Q01DX001 (ip), vehicle: Klucel (hydroxypropylcellulose) (HPC)
[6] = dose: 100.0 mg/kg/injection, schedule: Q04DX003 (ip), vehicle: Klucel (hydroxypropylcellulose) (HPC)
[7] = dose: 200.0 mg/kg/injection, schedule: Q01DX001 (ip), vehicle: Klucel (hydroxypropylcellulose) (HPC)
[8] = dose: 200.0 mg/kg/injection, schedule: Q04DX003 (ip), vehicle: Klucel (hydroxypropylcellulose) (HPC)
[9] = dose: 400.0 mg/kg/injection, schedule: Q01DX001 (ip), vehicle: Klucel (hydroxypropylcellulose) (HPC)
[10] = dose: 100.0 mg/kg/injection, schedule: Q01DX001 (ip), vehicle: saline
[11] = dose: 200.0 mg/kg/injection, schedule: Q01DX001 (ip), vehicle: saline
[12] = dose: 75.0 mg/kg/injection, schedule: Q01DX001 (ip), vehicle: saline
[13] = dose: 150.0 mg/kg/injection, schedule: Q01DX001 (ip), vehicle: saline
[14] = dose: 50.0 mg/kg/injection, schedule: Q01DX009 (ip), vehicle: saline with Tween-80
[15] = dose: 400.0 mg/kg/injection, schedule: Q04DX003 (ip), vehicle: Klucel (hydroxypropylcellulose) (HPC)

For `CC([NH-])C[NH-].[Cl][Pt+2][Cl]` (stereo unspecified), the T/C (dose: 0.31 mg/kg/injection, schedule: Q01DX009 (ip), vehicle: saline) was 108 % of control, the T/C (dose: 0.62 mg/kg/injection, schedule: Q01DX009 (ip), vehicle: saline) was 116 % of control and 119 % of control and the T/C (dose: 1.1 mg/kg/injection, schedule: Q01DX009 (ip), vehicle: saline) was 111 % of control. The T/C (dose: 1.25 mg/kg/injection, schedule: Q01DX009 (ip), vehicle: saline) was 122 % of control, the T/C (dose: 1.65 mg/kg/injection, schedule: Q01DX009 (ip), vehicle: saline) was 116 % of control and the T/C (dose: 3.75 mg/kg/injection, schedule: Q01DX009 (ip), vehicle: saline) was 173 % of control. For the same compound, the T/C (dose: 5.0 mg/kg/injection, schedule: Q01DX009 (ip), vehicle: saline) was 93 % of control and 108 % of control, the T/C (dose: 6.25 mg/kg/injection, schedule: Q04DX002 (ip), vehicle: Klucel (hydroxypropylcellulose) (HPC)) was 112 % of control and the T/C (dose: 12.5 mg/kg/injection, schedule: Q04DX002 (ip), vehicle: Klucel (hydroxypropylcellulose) (HPC)) was 112 % of control. For the same compound, the T/C (dose: 25.0 mg/kg/injection, schedule: Q04DX002 (ip), vehicle: Klucel (hydroxypropylcellulose) (HPC)) was 104 % of control.

In the case of `CCN(CC)CC(=O)NCC(CCN1CCCCC1)c1cccc2ccccc12` (stereo unspecified), the T/C (dose: 25.0 mg/kg/injection, schedule: Q04DX003 (ip), vehicle: saline) is reported as 98 % of control, the T/C (dose: 50.0 mg/kg/injection, schedule: Q04DX003 (ip), vehicle: saline) is reported as 111 % of control and the T/C (dose: 100.0 mg/kg/injection, schedule: Q01DX009 (ip), vehicle: saline) is reported as 105 % of control. For the same compound, the T/C (dose: 100.0 mg/kg/injection, schedule: Q04DX003 (ip), vehicle: saline) was 111 % of control.

For `COc1ccc(OC)c(NC(=O)Nc2cc(OC)ccc2OC)c1`, the T/C [1] was 106 % of control, the T/C [2] was 97 % of control and the T/C [3] was 94 % of control.

`O=C(NCc1ccco1)Nc1ccc(Cl)cc1` was tested, and the T/C (dose: 100.0 mg/kg/injection, schedule: Q01DX001 (ip), vehicle: saline with Tween-80) was 101 % of control, the T/C (dose: 200.0 mg/kg/injection, schedule: Q01DX001 (ip), vehicle: saline with Tween-80) was 96 % of control and the T/C (dose: 400.0 mg/kg/injection, schedule: Q01DX001 (ip), vehicle: saline with Tween-80) was 108 % of control.

For `O=c1cc(-c2ccccc2)nc(SCc2ccccc2Cl)[nH]1`, the T/C (dose: 25.0 mg/kg/injection, schedule: Q01DX Z (ip), vehicle: methylcellulose (MC)) was 94 % of control.

For `C=C(Br)CNC1CCC(CCCC)CC1` (stereo unspecified), the T/C [4] was 106 % of control, the T/C [5] was 98 % of control and the T/C [6] was 102 % of control. The T/C [7] was 98 % of control, the T/C [8] was 93 % of control and the T/C [9] was 98 % of control.

With `Cc1ccc(C)c(CNc2cc(=O)[nH]c(=O)[nH]2)c1` the T/C [5] was 97 % of control, the T/C [7] was 101 % of control and the T/C [9] was 97 % of control.

`Cc1cccc(N2CCN(CCO)CC2)c1` was tested, and the T/C (dose: 50.0 mg/kg/injection, schedule: Q01DX009 (ip), vehicle: saline) was 106 % of control.

With `O=C(Nc1ccc(Cl)cc1)Oc1ccccn1` the T/C [1] was 93 % of control, the T/C [2] was 91 % of control and the T/C [3] was 91 % of control.

For `O=C(O)C1C2C=CC(C2)C1C(=O)O.[Cu+2]` (stereo unspecified), the T/C (dose: 3.12 mg/kg/injection, schedule: Q01DX009 (ip), vehicle: Klucel (hydroxypropylcellulose) (HPC)) was 95 % of control, the T/C (dose: 6.25 mg/kg/injection, schedule: Q01DX009 (ip), vehicle: Klucel (hydroxypropylcellulose) (HPC)) was 96 % of control and the T/C (dose: 12.5 mg/kg/injection, schedule: Q01DX009 (ip), vehicle: Klucel (hydroxypropylcellulose) (HPC)) was 101 % of control. The T/C (dose: 12.5 mg/kg/injection, schedule: Q04DX003 (ip), vehicle: Klucel (hydroxypropylcellulose) (HPC)) was 103 % of control, the T/C (dose: 18.0 mg/kg/injection, schedule: Q01DX009 (ip), vehicle: Klucel (hydroxypropylcellulose) (HPC)) was 101 % of control and the T/C (dose: 28.0 mg/kg/injection, schedule: Q01DX009 (ip), vehicle: Klucel (hydroxypropylcellulose) (HPC)) was 93 % of control.

For `CCOC(=O)C(Cc1ccc(O)cc1)NC(=O)C(N)CSSCC(N)C(=O)NC(Cc1ccc(O)cc1)C(=O)OCC` (stereo not drawn) (I: H-Cys-Tyr-OEt / II: H-Cys-Tyr-OEt; disulfide I:1-II:1; configuration not given here), the T/C [10] was 97 % of control, the T/C [11] was 105 % of control and the T/C (dose: 400.0 mg/kg/injection, schedule: Q01DX001 (ip), vehicle: saline) was 94 % of control.

In the case of `O=CN/N=C/c1ccc(Cl)cc1Cl`, the T/C [12] is reported as 95 % of control and the T/C [13] is reported as 104 % of control.

For `CC(C)C1(NC(=O)C2C=C3c4cccc5[nH]cc(c45)CC3N(C)C2)OC2(O)C3CCCN3C(=O)C(Cc3ccccc3)N2C1=O` (stereo unspecified), the T/C (dose: 50.0 mg/kg/injection, schedule: Q01DX001 (ip), vehicle: carboxymethylcellulose (CMC)) was 93 % of control, the T/C (dose: 50.0 mg/kg/injection, schedule: Q01DX001 (ip), vehicle: other) was 93 % of control and the T/C (dose: 100.0 mg/kg/injection, schedule: Q01DX001 (ip), vehicle: carboxymethylcellulose (CMC)) was 98 % of control. The T/C (dose: 100.0 mg/kg/injection, schedule: Q01DX001 (ip), vehicle: other) was 88 % of control, the T/C [10] was 102 % of control and the T/C (dose: 200.0 mg/kg/injection, schedule: Q01DX001 (ip), vehicle: other) was 93 % of control. The T/C [11] was 96 % of control and 89 % of control and the T/C (dose: 400.0 mg/kg/injection, schedule: Q01DX001 (ip), vehicle: other) was 96 % of control.

In the case of `O=C1NC2(C=CCCC2)C(O)(c2ccccc2)C12CCCCC2` (stereo unspecified), the T/C [12] is reported as 95 % of control, the T/C [13] is reported as 86 % of control and the T/C (dose: 300.0 mg/kg/injection, schedule: Q01DX001 (ip), vehicle: saline) is reported as 89 % of control.

In the case of `NC(=O)NC(C(=O)O)(c1ccccc1)C1CCC1` (stereo unspecified), the T/C [14] is reported as 103 % of control, the T/C [1] is reported as 94 % of control and the T/C [2] is reported as 102 % of control. The T/C [3] was 107 % of control.

In the case of `O=C(O)c1ccccc1CBr`, the T/C (dose: 100.0 mg/kg/injection, schedule: Q01DX005 (ip), vehicle: Klucel (hydroxypropylcellulose) (HPC)) is reported as 97 % of control, the T/C (dose: 100.0 mg/kg/injection, schedule: Q01DX009 (ip), vehicle: Klucel (hydroxypropylcellulose) (HPC)) is reported as 97 % of control and the T/C (dose: 100.0 mg/kg/injection, schedule: Q04DX002 (ip), vehicle: Klucel (hydroxypropylcellulose) (HPC)) is reported as 96 % of control. The T/C [6] was 93 % of control, the T/C (dose: 200.0 mg/kg/injection, schedule: Q01DX005 (ip), vehicle: Klucel (hydroxypropylcellulose) (HPC)) was 105 % of control and the T/C (dose: 200.0 mg/kg/injection, schedule: Q01DX009 (ip), vehicle: Klucel (hydroxypropylcellulose) (HPC)) was 97 % of control. The T/C (dose: 200.0 mg/kg/injection, schedule: Q04DX002 (ip), vehicle: Klucel (hydroxypropylcellulose) (HPC)) was 100 % of control, the T/C [8] was 93 % of control and the T/C (dose: 400.0 mg/kg/injection, schedule: Q01DX005 (ip), vehicle: Klucel (hydroxypropylcellulose) (HPC)) was 101 % of control. The T/C (dose: 400.0 mg/kg/injection, schedule: Q01DX009 (ip), vehicle: Klucel (hydroxypropylcellulose) (HPC)) was 97 % of control, the T/C (dose: 400.0 mg/kg/injection, schedule: Q04DX002 (ip), vehicle: Klucel (hydroxypropylcellulose) (HPC)) was 93 % of control and the T/C [15] was 105 % of control.

In the case of `O=C(O)CCC1CC1C(=O)c1ccccc1` (stereo unspecified), the T/C [4] is reported as 102 % of control, the T/C [6] is reported as 100 % of control and the T/C [8] is reported as 103 % of control. For the same compound, the T/C [15] was 103 % of control.

With `Nc1cc(C(F)(F)F)ccc1Cl` the T/C (dose: 100.0 mg/kg/injection, schedule: Q04DX003 (ip), vehicle: alcohol) was 100 % of control, the T/C (dose: 200.0 mg/kg/injection, schedule: Q04DX003 (ip), vehicle: alcohol) was 96 % of control and the T/C (dose: 400.0 mg/kg/injection, schedule: Q04DX003 (ip), vehicle: alcohol) was 97 % of control.

For `CC/S(=N\S(=O)(=O)c1ccc(C)cc1)c1ccccc1` (stereo unspecified), the T/C [1] was 108 % of control, the T/C [2] was 100 % of control and the T/C [3] was 100 % of control.

For `CC(C)C(Cl)c1ccccc1` (stereo unspecified), the T/C [14] was 87 % of control, the T/C [1] was 91 % of control and the T/C [2] was 87 % of control.

With `CCc1cccc(CC)c1NC(=S)NN` the T/C (dose: 100.0 mg/kg/injection, schedule: Q04DX002 (ip), vehicle: saline with Tween-80) was 103 % of control.
